The NIST ThermoML archive (doi:10.1016/j.tca.2014.07.018)

Experiment: molar heat capacity at saturation pressure
Conditions: Crystal, Small (less than 1 g) adiabatic calorimetry

C1C2CC3CC1CC(c1nnn[nH]1)(C2)C3 [5-(1-adamantyl)tetrazole]
Conditions | molar heat capacity [J/K/mol]
5.162 K | 0.5343
5.486 K | 0.6514
5.811 K | 0.7886
6.141 K | 0.9446
6.535 K | 1.157
6.999 K | 1.433
7.466 K | 1.748
7.944 K | 2.099
8.427 K | 2.496
8.915 K | 2.914
9.407 K | 3.374
9.905 K | 3.847
10.47 K | 4.424
11.12 K | 5.106
11.77 K | 5.817
12.42 K | 6.568
13.1 K | 7.361
13.77 K | 8.166
14.45 K | 9.013
15.14 K | 9.87
15.93 K | 10.87
16.83 K | 12.03
17.74 K | 13.17
18.65 K | 14.31
19.56 K | 15.45
20.76 K | 16.96
22.25 K | 18.79
23.76 K | 20.65
25.27 K | 22.46
26.78 K | 24.22
28.31 K | 25.96
29.59 K | 27.43
31.31 K | 29.26
33.16 K | 31.15
35.01 K | 33.01
36.86 K | 34.76
38.72 K | 36.52
40.58 K | 38.18
42.54 K | 39.91
44.6 K | 41.62
46.67 K | 43.41
48.74 K | 45.04
50.82 K | 46.64
52.9 K | 48.22
54.99 K | 49.8
57.07 K | 51.31
59.17 K | 52.73
61.28 K | 54.19
63.38 K | 55.67
65.49 K | 57.06
67.6 K | 58.52
69.71 K | 59.93
71.92 K | 61.4
74.24 K | 62.88
76.57 K | 64.45
78.7 K | 65.87
78.9 K | 65.93
80.66 K | 67.14
81.23 K | 67.48
82.56 K | 68.36
83.56 K | 68.98
84.46 K | 69.59
86.37 K | 70.82
88.29 K | 72.06
90.2 K | 73.3
92.12 K | 74.53
94.04 K | 75.78
95.96 K | 77.1
97.9 K | 78.34
99.83 K | 79.61
101.75 K | 80.79
103.69 K | 82.06
105.62 K | 83.32
107.56 K | 84.62
109.51 K | 85.87
111.45 K | 87.18
113.4 K | 88.45
115.36 K | 89.75
117.32 K | 91.05
119.27 K | 92.33
121.23 K | 93.59
123.19 K | 94.91
125.16 K | 96.2
127.12 K | 97.48
129.09 K | 98.86
131.06 K | 100.1
133.04 K | 101.5
135.02 K | 102.8
137 K | 104.2
138.98 K | 105.5
140.97 K | 106.9
142.95 K | 108.3
144.93 K | 109.7
146.93 K | 111.1
148.92 K | 112.6
150.91 K | 114
152.9 K | 115.4
154.89 K | 116.8
156.89 K | 118.3
158.89 K | 119.8
160.89 K | 121.3
162.89 K | 122.7
164.89 K | 124.3
166.9 K | 125.8
168.9 K | 127.4
170.91 K | 128.9
172.92 K | 130.5
174.93 K | 132
176.93 K | 133.7
178.93 K | 135.1
180.94 K | 136.8
182.95 K | 138.3
184.97 K | 140.1
186.99 K | 141.6
189 K | 143.3
191.02 K | 144.9
193.03 K | 146.6
195.05 K | 148.4
197.07 K | 150.1
199.09 K | 151.7
201.1 K | 153.4
203.13 K | 155.1
205.16 K | 156.8
207.18 K | 158.6
209.21 K | 160.4
211.24 K | 162.1
213.27 K | 163.9
215.3 K | 165.7
217.33 K | 167.6
219.37 K | 169.4
221.4 K | 171.2
223.43 K | 173
224.08 K | 173.6
225.46 K | 174.9
226.05 K | 175.4
227.5 K | 176.8
228.08 K | 177.3
230.12 K | 179.2
232.16 K | 181.1
234.19 K | 183.1
236.23 K | 184.9
238.27 K | 186.8
240.31 K | 188.8
242.35 K | 190.8
244.39 K | 192.5
246.43 K | 194.5
248.47 K | 196.4
250.51 K | 198.4
252.55 K | 200.3
254.59 K | 202.2
256.64 K | 204.1
258.68 K | 206.2
260.73 K | 208
262.77 K | 209.9
264.81 K | 211.9
266.86 K | 213.7
268.9 K | 215.5
270.94 K | 217.3
272.99 K | 219.2
275.03 K | 221
277.08 K | 222.9
279.13 K | 224.5
281.18 K | 226.3
283.22 K | 227.9
285.27 K | 229.8
287.32 K | 231.5
289.37 K | 233.1
291.42 K | 234.7
293.46 K | 236.3
295.51 K | 237.9
297.56 K | 239.7
299.61 K | 241.3
301.65 K | 242.8
303.7 K | 244.6
305.75 K | 246
307.8 K | 247.6
309.86 K | 249.2
311.91 K | 250.7
313.96 K | 252.3
316.02 K | 253.9
318.07 K | 255.5
320.14 K | 256.9
322.2 K | 258.6
324.26 K | 260.2
326.32 K | 261.8
328.38 K | 263.2
330.44 K | 264.8
332.5 K | 266.3
334.57 K | 267.8
336.63 K | 269.4
338.69 K | 270.9
340.76 K | 272.4
342.83 K | 274.2
344.9 K | 275.7
346.97 K | 277.1
349.04 K | 278.9
351.11 K | 280.5
353.2 K | 282.1
355.27 K | 283.8
357.34 K | 285.5
359.41 K | 287.2
361.48 K | 288.9
363.56 K | 290.4
365.63 K | 292
367.7 K | 293.7
